According to article PMC12073189, “Synthesis and Evaluation of a Novel Zuranolone Analog with High GABAA Receptor PAM Activity and Excellent Pharmacokinetic Profiles” (Molecules, 2025):

Tests used:
α1β2γ2 GABAA receptor = molecular target: T1, α1β2γ2 GABAA receptor (Homo sapiens, UniProt P14867+P47870); test: Whole-cell electrophysiology of GABA-evoked currents, LTK cells; type: cell-based; settings: for EC50 / Emax: LTK cells, n = 3; for EC50: 1 μmol/L GABA (EC20), read-out: α1β2γ2 EC50; for Emax: current induced by 1 μmol/L GABA = 100%; for activity as % of that of Zuranolone: GABAA receptor subtypes
T1 construct: expressed in transfected cells
T1 sequence (P14867 28-456): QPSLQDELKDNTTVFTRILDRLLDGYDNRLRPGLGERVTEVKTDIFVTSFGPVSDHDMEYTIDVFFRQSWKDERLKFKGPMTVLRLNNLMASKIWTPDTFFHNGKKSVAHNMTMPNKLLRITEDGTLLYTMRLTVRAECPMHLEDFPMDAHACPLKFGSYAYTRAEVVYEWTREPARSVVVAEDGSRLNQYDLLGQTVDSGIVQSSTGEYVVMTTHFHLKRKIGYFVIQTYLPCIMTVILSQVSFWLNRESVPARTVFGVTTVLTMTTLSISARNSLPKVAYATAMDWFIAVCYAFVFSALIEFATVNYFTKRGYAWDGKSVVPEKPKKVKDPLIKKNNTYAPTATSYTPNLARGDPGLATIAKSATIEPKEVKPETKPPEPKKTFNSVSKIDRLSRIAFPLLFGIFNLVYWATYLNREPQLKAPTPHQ
T1 sequence (P47870 25-512 limits assumed): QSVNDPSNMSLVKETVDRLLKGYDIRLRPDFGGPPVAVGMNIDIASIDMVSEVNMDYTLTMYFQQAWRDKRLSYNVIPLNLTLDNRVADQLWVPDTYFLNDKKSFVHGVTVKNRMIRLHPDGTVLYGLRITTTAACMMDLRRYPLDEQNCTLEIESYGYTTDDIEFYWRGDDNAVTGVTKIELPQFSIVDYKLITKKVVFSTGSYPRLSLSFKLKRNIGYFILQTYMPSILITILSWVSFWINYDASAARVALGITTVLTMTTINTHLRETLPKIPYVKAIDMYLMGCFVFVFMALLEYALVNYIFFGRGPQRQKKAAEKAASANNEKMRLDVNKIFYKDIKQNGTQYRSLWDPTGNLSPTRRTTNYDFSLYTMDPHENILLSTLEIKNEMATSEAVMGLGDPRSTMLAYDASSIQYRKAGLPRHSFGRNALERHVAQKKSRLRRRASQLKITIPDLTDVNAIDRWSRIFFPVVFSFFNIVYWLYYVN
T1 sequence (P18507 40-475 partner): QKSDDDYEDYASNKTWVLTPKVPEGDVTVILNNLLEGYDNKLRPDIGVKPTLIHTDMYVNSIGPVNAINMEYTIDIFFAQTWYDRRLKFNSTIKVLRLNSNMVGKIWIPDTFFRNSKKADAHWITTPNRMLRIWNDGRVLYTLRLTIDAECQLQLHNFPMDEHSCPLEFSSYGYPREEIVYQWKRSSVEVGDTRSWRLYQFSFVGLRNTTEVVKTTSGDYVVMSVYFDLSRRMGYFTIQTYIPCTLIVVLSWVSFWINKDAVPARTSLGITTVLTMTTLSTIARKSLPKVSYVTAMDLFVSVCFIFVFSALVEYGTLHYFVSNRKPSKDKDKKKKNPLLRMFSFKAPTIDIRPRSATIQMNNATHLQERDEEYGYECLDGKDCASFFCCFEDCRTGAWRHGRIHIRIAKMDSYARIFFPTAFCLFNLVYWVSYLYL
Method: (§1) The α1β2γ2 and α4β3δ GABAA receptor subtypes, representing synaptic and extrasynaptic subunit compositions in neurons, are widely utilized for screening new NAS drugs. In this study, a preliminary SAR study was conducted on a series of Zuranolone analogs using the LogP values predicted by ADMETlab3.0 software, recombinant human GABAA receptor cell lines, and in vitro liver microsome stability assays. The results are summarized in Table 1, Table 2, and Table 3, respectively.
(§2) The effects of Zuranolone and synthetic analogs on GABA-evoked currents were assessed in LTK cells stably expressing α1β2γ2 GABAA receptor subunits (n = 3) or CHO cells transiently expressing α4β3δ receptors (n = 3). Whole-cell mode recordings were conducted using the HEKA EPC-10 amplifier and analyzed with PatchMaster software (version 2x90, HEKA Elektronik, Lambrecht, Germany). High-throughput whole-cell recordings were performed using the Q-Patch method from Sophion. Test substances were dissolved in DMSO (dimethyl sulfoxide) to prepare 10 mmol/L stock solutions, then diluted with perfusion bath solution to concentrations ranging from 0.01 to 10 μmol/L. In this experiment, the effects of Zuranolone and its synthetic analogs on GABA-induced currents were examined in the presence of a submaximal agonist concentration at 1 μmol/L GABA (EC20). Cells were pre-incubated with increasing doses of test substances for 30 s, followed by 2 s of GABA stimulation, and currents were recorded. The maximum efficacy (Emax) of the GABAA receptor is expressed with the current induced by 1 μmol/L GABA taken as 100%, and the percentage after treatment with the test compound is calculated. The EC50 values are determined by fitting the three concentration–response curves recorded from three cells.

α4β3δ GABAA receptor = molecular target: T2, α4β3δ GABAA receptor (Homo sapiens, UniProt P28472+P48169); test: Whole-cell electrophysiology of GABA-evoked currents, CHO cells; type: cell-based; settings: for EC50 / Emax: CHO cells, n = 3; for EC50: 1 μmol/L GABA (EC20), read-out: α4β3δ EC50; for Emax: current induced by 1 μmol/L GABA = 100%
T2 construct: expressed in transfected cells; host or cells: CHO cells (transient expression)
T2 sequence (P48169 36-554): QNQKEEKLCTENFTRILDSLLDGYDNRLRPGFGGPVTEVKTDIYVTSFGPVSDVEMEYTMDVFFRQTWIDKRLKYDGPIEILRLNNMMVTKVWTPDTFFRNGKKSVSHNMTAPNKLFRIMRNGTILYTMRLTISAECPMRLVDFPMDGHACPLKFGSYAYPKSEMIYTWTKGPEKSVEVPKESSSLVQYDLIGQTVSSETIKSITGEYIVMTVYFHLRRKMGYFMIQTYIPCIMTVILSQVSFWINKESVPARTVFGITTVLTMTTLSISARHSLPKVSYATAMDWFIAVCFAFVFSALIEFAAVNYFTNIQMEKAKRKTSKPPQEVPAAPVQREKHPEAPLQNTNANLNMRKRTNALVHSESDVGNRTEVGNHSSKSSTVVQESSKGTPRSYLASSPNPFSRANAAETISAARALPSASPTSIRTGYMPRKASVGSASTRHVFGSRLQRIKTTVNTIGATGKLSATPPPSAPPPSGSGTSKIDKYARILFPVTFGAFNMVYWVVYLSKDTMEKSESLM
T2 sequence (P28472 26-473): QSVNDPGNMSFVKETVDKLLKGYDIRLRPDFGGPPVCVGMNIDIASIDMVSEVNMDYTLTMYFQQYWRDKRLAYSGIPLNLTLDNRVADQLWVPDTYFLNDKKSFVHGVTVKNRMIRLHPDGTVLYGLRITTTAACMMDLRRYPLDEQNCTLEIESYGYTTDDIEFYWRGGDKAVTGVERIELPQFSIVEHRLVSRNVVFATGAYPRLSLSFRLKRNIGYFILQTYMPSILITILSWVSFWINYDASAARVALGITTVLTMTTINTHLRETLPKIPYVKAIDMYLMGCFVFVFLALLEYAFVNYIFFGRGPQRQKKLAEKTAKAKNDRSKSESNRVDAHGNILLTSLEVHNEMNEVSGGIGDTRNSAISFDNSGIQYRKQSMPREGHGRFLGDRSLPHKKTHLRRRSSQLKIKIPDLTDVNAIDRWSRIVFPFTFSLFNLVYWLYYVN
T2 sequence (O14764 25-452 partner): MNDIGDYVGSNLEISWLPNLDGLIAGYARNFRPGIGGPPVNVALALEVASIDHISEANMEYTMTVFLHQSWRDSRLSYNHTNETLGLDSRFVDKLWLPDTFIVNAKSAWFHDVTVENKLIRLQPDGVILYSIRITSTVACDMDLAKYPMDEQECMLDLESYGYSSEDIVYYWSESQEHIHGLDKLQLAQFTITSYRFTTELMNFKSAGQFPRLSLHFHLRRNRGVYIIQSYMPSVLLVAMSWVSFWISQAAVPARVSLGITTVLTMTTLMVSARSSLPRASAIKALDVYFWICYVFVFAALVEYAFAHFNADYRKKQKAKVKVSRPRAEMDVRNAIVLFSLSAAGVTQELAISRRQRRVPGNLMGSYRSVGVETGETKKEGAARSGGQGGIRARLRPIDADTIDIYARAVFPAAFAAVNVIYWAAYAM
Method: as §1, §2

[1] = Liver microsome metabolic stability (RLM); type: in vitro ADME, rat; settings: pH 7.4; rat liver microsomes; read-out: RLM T1/2
Method: (§3) We quantified S1–S15 and Zuranolone using a UPLC-MS/MS (Agilent 1290 Infinity II UHPLC (Agilent Technologies, Santa Clara, CA, USA) coupled with a QTRAP 5500 MS/MS (ESI source) (SCIEX, Redwood City, CA, USA for MS/MS). The method assessed the content level of S9 and Zuranolone in microsome metabolism and in rat brain tissue and plasma. An ACQUITY UPLC Peptide BEH C18 column (Waters; 50 × 2.1 mm, 1.7 μm; 60 °C; Waters Corporation, Milford, MA, USA) was used with a mobile phase of 0.02% propionic acid in water (A) and acetonitrile (B). The gradient elution of the mobile phase B is carried out as follows: it is 10% from 0 to 0.5 min, 90% from 0.8 to 2.5 min, and 10% from 2.8 to 3.5 min, with a flow rate of 0.40 mL/min. Quantitative analysis was performed on a QTRAP 5500 MS (SCIEX, Redwood City, CA, USA) in positive ionization mode with MRM (multiple reaction monitoring), using progesterone-d9 as the internal standard. MRM transitions and parameters were optimized for each analyte, with collision energies of 25 V (S1–S15), 23 V (Zuranolone), and 30 V (IS), and declustering potentials of 80 V (S1–S15), 90 V (Zuranolone), and 180 V (IS). Other conditions were as follows: curtain gas 10 psi, collision gas ‘medium’, ion spray voltage 5500 V, temperature 500 °C, and ionization source gases 1 and 2 at 50 psi.
(§4) To evaluate the metabolic stability of compounds S1–S15 and Zuranolone in RLM and HLM, we designed the following in vitro liver microsome metabolism assay protocol. In a 1.5 mL centrifuge tube, sequentially add 173 μL of PBS (0.1 M, pH 7.4), 5 μL of liver microsomes (20 mg/mL), and 2 μL of the test compound (100 μmol/L). After thorough mixing, pre-incubate at 37 °C for 10 min. Subsequently, add 20 μL of NADPH to initiate the metabolism, with a parallel control without NADPH, to validate the background signal. Samples were collected at 0, 5, 10, 20, 30, and 60 min post-reaction initiation. At each designated time point, we quenched the reaction with ice-cold acetonitrile (600 μL). After centrifuging the mixture, we analyzed the supernatant using UPLC-MS/MS. For data analysis, the compound concentration at 0 min was set as 100%, with concentrations at subsequent time points expressed as residual percentages relative to the initial value, and the in vitro half-life (T1/2) and intrinsic clearance (CLint) were calculated.

[2] = Liver microsome metabolic stability (HLM); type: in vitro ADME, human; settings: pH 7.4; human liver microsomes; read-out: HLM T1/2
Method: as §3, §4

| Compound | EC50 (α1β2γ2 GABAA receptor) [nM] | Emax (α1β2γ2 GABAA receptor) [%] | EC50 (α4β3δ GABAA receptor) [nM] | Emax (α4β3δ GABAA receptor) [%] | half-life at 1 µM [1] [min] | half-life at 1 µM [2] [min] | activity as % of that of Zuranolone (α1β2γ2 GABAA receptor; not separated) | half-life at 1 μmol/L [1] [min] | half-life at 1 μmol/L [2] [min] | potency higher than Zuranolone (α1β2γ2 GABAA receptor; synaptic and extrasynaptic GABAA receptor subtypes, not separated) | potency as % of that of Zuranolone (α1β2γ2 GABAA receptor; synaptic GABAA receptors) [%] | potency as % of that of Zuranolone (α4β3δ GABAA receptor; extrasynaptic GABAA receptors) [%] |
| --- | --- | --- | --- | --- | --- | --- | --- | --- | --- | --- | --- | --- |
| COCCn1ncn(CC(=O)[C@H]2CC[C@H]3[C@@H]4CC[C@@H]5C[C@](C)(O)CC[C@@H]5[C@H]4CC[C@]23C)c1=O [S1] | 227 ± 52 | 735 ± 75 | 86 ± 25 | 609 ± 83 | 11 | 34 | – | – | – | – | – | – |
| C[C@@]1(O)CC[C@H]2[C@H](CC[C@@H]3[C@@H]2CC[C@]2(C)[C@@H](C(=O)Cn4ncn(CC5CC5)c4=O)CC[C@@H]32)C1 [S2] | 58 ± 10 | 320 ± 25 | 140 ± 10 | 450 ± 35 | – | – | – | – | – | – | – | – |
| COc1ccc(-n2ncn(CC(=O)[C@H]3CC[C@H]4[C@@H]5CC[C@@H]6C[C@](C)(O)CC[C@@H]6[C@H]5CC[C@]34C)c2=O)cn1 [S3] | 167 ± 37 | 389 ± 50 | 134 ± 32 | 474 ± 53 | – | – | less than 50% | 16 | 73 | – | – | – |
| Cc1cc(-n2ncn(CC(=O)[C@H]3CC[C@H]4[C@@H]5CC[C@@H]6C[C@](C)(O)CC[C@@H]6[C@H]5CC[C@]34C)c2=O)cc(C)n1 [S4] | 171 ± 40 | 691 ± 72 | 41 ± 19 | 563 ± 85 | – | – | less than 50% | – | – | – | – | – |
| C[C@@]1(O)CC[C@H]2[C@H](CC[C@@H]3[C@@H]2CC[C@]2(C)[C@@H](C(=O)Cn4cnn(-c5cccnc5)c4=O)CC[C@@H]32)C1 [S5] | 373 ± 45 | 773 ± 87 | 61 ± 15 | 391 ± 64 | – | – | – | 11 | 24 | – | – | – |
| C[C@@]1(O)CC[C@H]2[C@H](CC[C@@H]3[C@@H]2CC[C@]2(C)[C@@H](C(=O)Cn4cnn(-c5cc(Cl)ccn5)c4=O)CC[C@@H]32)C1 [S7] | 109 ± 27 | 624 ± 29 | 72 ± 21 | 589 ± 63 | – | – | – | 21 | 69 | approximately 10% | – | – |
| C[C@@]1(O)CC[C@H]2[C@H](CC[C@@H]3[C@@H]2CC[C@]2(C)[C@@H](C(=O)Cn4cnn(-c5ccnc(C(F)F)c5)c4=O)CC[C@@H]32)C1 [S8] | 83 ± 24 | 600 ± 69 | 49 ± 15 | 432 ± 55 | – | – | – | 29 | 23 | – | 140 | 150 |
| C[C@@]1(O)CC[C@H]2[C@H](CC[C@@H]3[C@@H]2CC[C@]2(C)[C@@H](C(=O)Cn4ncn(-c5ccc(F)cc5)c4=O)CC[C@@H]32)C1 [S10] | 12.4 ± 5 | 294 ± 52 | 148 ± 25 | 428 ± 45 | – | – | less than 50% | 10 | 33 | – | – | – |
| C[C@@]1(O)CC[C@H]2[C@H](CC[C@@H]3[C@@H]2CC[C@]2(C)[C@@H](C(=O)Cn4cnn(-c5cccc(C(N)=O)c5)c4=O)CC[C@@H]32)C1 [S12] | 153 ± 33 | 764 ± 65 | 159 ± 20 | 386 ± 50 | – | – | less than 50% | 18 | 29 | – | – | – |
| C[C@@]1(O)CC[C@H]2[C@H](CC[C@@H]3[C@@H]2CC[C@]2(C)[C@@H](C(=O)Cn4cnn(-c5cc(F)cc(C#N)c5)c4=O)CC[C@@H]32)C1 [S13] | 72 ± 16 | 518 ± 87 | 37 ± 12 | 549 ± 101 | – | – | – | 90 | 40 | – | – | – |
| C[C@@]1(O)CC[C@H]2[C@H](CC[C@@H]3[C@@H]2CC[C@]2(C)[C@@H](C(=O)Cn4cnn(CCOC(F)(F)F)c4=O)CC[C@@H]32)C1 [S14] | 770 ± 104 | 576 ± 78 | 460 ± 59 | 889 ± 126 | – | – | – | 23 | 31 | – | – | – |
| C[C@@]1(O)CC[C@H]2[C@H](CC[C@@H]3[C@@H]2CC[C@]2(C)[C@@H](C(=O)Cn4c(=O)n(-c5ccccc5)c5ccccc54)CC[C@@H]32)C1 [S15] | 31 ± 12 | 305 ± 62 | 55 ± 15 | 470 ± 94 | – | – | – | 210 | 248 | – | – | – |
